Measurements as given in patent US4556565A, “Sweetener composition, process for making the same, and comestibles comprising said sweetener composition” (priority 1983, dated 1985).
Where a SMILES comes first, the peptide text is derived from it.

Assays:
[1] = system: bacteria in the mouth; settings: cited from earlier work
[2] = Cold water solubility test (time to dissolve); format: physicochemical; settings: 15 g/100 ml of water, 10° C., magnetic stirrer (3 turns/sec)
Excerpt: A magnetic stirrer (3 turns/sec) was used to agitate each sample.

[3] = Residual APM in chewing gum on standing at 32° C.; format: physicochemical; settings: calcium carbonate in the chewing gum base
[4] = cited from earlier work

Row | Compound | Dental caries causing effect / bacterial action in the mouth [1] | Cold water solubility of sweetener compositions [2] [s] | Stability of APM in chewing gum containing calcium carbonate [3] | Dispersibility or solubility in water [4]
1 | OC[C@@H](O)[C@@H](O[C@H]1O[C@H](CO)[C@@H](O)[C@H](O)[C@H]1O)[C@H](O)[C@@H](O)CO [hydrogenated maltose] | not subjected to the bacterial action in the mouth | – | – | –
2 | COC(=O)[C@H](Cc1ccccc1)NC(=O)[C@@H](N)CC(=O)O [APM, L-aspartyl-L-phenylalanine methyl ester] (H-Asp-Phe-OMe) | low dental caries causing effect | 900 | rapidly decomposed by calcium carbonate | low dispersibility or solubility in water
